Laboratory results from BindingDB's records for PubMed 11454918.
Counter-ions that a name gives are not always drawn.

Tests used:
[1] = biological target: 5-hydroxytryptamine receptor 1B (Homo sapiens, UniProt P28222)
[2] = biological target: T1, 5-hydroxytryptamine receptor 1A (Homo sapiens, UniProt P08908)
T1 sequence (P08908 whole entry): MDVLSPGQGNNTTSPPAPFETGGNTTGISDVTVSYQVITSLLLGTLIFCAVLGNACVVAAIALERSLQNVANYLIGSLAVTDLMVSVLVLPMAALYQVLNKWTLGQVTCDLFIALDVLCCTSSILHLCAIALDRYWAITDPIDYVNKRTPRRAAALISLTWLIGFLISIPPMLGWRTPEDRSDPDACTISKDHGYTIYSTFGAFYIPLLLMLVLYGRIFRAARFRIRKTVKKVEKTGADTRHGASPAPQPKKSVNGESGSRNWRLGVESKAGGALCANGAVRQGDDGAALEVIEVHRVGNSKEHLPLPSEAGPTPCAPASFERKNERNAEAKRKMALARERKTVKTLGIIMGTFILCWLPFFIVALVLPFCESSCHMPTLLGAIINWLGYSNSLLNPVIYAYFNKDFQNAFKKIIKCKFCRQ

[3] = biological target: 5-hydroxytryptamine receptor 1D (Homo sapiens, UniProt P28221)
5-hydroxytryptamine receptor 1D, sequence (P28221 whole entry): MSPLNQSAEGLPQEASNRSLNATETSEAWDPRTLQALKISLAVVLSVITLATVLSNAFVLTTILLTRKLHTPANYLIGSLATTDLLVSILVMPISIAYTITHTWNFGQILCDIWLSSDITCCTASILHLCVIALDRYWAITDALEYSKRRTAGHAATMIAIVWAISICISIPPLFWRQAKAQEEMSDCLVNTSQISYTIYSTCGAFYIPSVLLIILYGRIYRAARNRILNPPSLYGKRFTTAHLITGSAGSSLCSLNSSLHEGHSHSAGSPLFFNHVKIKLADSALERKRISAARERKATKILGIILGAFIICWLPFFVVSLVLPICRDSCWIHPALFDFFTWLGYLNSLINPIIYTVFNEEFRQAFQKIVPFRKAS

[4] = biological target: T2, Alpha-1A adrenergic receptor (Rattus norvegicus, UniProt P43140)
T2 sequence (P43140 whole entry): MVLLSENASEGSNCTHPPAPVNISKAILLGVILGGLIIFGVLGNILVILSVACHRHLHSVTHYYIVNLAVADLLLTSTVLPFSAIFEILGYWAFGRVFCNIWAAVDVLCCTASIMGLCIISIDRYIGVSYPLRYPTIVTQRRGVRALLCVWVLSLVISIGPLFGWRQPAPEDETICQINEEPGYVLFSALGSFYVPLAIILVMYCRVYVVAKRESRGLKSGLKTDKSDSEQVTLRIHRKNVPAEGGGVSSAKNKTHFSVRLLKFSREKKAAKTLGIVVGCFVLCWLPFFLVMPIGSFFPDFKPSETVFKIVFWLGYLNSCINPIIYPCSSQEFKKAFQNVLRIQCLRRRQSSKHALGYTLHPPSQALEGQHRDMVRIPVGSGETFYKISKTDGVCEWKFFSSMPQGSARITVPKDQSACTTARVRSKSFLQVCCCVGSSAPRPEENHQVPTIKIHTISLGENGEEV

[5] = biological target: T3, Alpha-2A adrenergic receptor (Homo sapiens, UniProt P08913)
T3 sequence (P08913 whole entry): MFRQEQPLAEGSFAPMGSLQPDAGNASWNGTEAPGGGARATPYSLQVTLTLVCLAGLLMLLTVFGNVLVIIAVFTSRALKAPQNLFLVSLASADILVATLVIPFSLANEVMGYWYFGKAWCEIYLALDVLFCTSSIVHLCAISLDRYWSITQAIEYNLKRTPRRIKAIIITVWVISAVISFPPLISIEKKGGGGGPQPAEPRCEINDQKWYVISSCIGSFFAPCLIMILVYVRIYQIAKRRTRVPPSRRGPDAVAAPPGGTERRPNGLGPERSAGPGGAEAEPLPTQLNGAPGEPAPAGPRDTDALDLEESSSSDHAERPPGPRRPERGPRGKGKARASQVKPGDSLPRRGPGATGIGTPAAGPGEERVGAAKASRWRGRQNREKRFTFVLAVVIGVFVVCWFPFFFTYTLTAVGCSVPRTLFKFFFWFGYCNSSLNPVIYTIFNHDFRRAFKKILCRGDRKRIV

[6] = biological target: T4, Alpha-2C adrenergic receptor (Rattus norvegicus, UniProt P22086)
T4 sequence (P22086 whole entry): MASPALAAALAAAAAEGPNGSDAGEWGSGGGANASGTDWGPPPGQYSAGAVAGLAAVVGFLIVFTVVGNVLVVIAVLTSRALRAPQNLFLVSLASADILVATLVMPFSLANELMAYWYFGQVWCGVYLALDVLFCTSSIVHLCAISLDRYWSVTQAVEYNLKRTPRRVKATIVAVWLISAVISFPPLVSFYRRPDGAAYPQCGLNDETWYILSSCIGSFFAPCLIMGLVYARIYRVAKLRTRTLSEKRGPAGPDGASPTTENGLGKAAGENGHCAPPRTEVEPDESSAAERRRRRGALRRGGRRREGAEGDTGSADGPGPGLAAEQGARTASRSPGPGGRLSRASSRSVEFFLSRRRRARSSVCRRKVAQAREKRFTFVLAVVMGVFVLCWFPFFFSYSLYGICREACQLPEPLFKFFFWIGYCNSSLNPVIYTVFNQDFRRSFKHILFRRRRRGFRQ

D(2) dopamine receptor = D(2) dopamine receptor (Homo sapiens, UniProt P14416)
D(2) dopamine receptor, sequence (P14416 whole entry): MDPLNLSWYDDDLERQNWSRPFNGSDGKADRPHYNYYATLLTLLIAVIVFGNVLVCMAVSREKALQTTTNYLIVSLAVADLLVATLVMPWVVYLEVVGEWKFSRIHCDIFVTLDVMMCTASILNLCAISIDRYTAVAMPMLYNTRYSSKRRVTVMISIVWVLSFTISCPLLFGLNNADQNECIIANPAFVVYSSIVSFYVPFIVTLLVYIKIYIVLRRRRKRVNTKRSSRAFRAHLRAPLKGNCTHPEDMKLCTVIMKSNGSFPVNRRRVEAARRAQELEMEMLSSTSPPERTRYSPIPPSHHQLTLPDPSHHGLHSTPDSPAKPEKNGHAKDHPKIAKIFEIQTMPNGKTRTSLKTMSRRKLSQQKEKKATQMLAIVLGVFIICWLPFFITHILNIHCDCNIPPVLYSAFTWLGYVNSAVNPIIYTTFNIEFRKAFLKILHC

[7] = biological target: T5, 5-hydroxytryptamine receptor 2C (Homo sapiens, UniProt P28335)
T5 sequence (P28335 whole entry): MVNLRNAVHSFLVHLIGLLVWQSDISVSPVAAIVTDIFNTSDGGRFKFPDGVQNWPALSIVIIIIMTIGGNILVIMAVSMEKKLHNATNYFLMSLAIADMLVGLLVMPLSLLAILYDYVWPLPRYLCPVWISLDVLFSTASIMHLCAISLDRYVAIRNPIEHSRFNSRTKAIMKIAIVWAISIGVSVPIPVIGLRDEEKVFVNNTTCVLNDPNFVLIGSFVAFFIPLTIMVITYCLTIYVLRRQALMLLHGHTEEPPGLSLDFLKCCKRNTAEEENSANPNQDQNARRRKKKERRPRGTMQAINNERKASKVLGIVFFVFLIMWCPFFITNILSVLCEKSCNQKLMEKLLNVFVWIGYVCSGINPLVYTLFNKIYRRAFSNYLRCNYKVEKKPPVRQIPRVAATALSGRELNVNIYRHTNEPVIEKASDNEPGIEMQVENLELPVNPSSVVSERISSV

[8] = biological target: T6, Alpha-1A adrenergic receptor (Homo sapiens, UniProt P35348)
T6 sequence (P35348 whole entry): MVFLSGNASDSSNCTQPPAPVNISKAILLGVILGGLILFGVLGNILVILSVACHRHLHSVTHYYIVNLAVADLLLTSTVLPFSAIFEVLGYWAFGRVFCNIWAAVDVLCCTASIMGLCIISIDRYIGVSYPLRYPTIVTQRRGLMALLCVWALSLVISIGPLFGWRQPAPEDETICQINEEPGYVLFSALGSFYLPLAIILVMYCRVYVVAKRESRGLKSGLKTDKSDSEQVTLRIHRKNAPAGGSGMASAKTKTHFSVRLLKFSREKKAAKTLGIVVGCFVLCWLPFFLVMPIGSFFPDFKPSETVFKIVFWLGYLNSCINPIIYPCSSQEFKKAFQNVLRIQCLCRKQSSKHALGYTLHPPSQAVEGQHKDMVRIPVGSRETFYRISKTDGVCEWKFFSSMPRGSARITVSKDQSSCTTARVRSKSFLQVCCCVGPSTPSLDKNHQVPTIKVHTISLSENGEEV

[9] = biological target: Sodium-dependent dopamine transporter (Homo sapiens, UniProt Q01959)
Sodium-dependent dopamine transporter (Homo sapiens, UniProt Q01959), sequence (Q01959 whole entry): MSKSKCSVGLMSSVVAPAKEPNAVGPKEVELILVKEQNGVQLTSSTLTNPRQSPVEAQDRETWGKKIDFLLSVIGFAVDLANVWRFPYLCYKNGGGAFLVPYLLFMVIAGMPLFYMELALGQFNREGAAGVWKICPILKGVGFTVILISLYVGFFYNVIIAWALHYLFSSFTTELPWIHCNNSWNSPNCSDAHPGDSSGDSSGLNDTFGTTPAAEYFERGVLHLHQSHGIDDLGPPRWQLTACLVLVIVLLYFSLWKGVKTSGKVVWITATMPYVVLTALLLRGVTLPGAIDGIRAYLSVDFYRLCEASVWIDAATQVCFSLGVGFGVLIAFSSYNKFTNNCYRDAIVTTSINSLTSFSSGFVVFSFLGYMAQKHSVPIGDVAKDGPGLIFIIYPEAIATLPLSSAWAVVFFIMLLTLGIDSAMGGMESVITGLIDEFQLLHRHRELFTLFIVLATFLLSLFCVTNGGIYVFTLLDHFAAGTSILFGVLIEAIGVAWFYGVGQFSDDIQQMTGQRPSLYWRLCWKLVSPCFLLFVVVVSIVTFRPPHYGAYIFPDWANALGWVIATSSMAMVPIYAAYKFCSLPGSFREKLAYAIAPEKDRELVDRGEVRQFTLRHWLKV

[10] = biological target: Sodium-dependent dopamine transporter (Rattus norvegicus, UniProt P23977)
Sodium-dependent dopamine transporter (Rattus norvegicus, UniProt P23977), sequence (P23977 whole entry): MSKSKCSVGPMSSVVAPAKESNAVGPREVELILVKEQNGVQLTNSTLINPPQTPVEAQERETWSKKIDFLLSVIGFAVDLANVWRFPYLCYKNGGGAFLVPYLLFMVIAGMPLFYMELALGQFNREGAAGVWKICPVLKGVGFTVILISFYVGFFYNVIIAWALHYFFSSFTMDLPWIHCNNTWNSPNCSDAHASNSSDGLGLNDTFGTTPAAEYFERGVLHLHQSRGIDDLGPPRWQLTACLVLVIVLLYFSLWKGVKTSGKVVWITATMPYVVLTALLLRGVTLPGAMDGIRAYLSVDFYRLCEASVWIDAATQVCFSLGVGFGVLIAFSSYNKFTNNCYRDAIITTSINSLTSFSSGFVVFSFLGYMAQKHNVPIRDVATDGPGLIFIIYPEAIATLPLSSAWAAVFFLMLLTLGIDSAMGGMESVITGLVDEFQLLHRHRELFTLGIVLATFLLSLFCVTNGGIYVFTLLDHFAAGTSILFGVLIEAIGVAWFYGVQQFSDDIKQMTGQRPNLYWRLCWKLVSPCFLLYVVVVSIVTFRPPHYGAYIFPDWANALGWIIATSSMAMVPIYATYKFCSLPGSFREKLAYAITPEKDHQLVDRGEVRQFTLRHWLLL

[11] = biological target: Sodium-dependent noradrenaline transporter (Homo sapiens, UniProt P23975)
Sodium-dependent noradrenaline transporter, sequence (P23975 whole entry): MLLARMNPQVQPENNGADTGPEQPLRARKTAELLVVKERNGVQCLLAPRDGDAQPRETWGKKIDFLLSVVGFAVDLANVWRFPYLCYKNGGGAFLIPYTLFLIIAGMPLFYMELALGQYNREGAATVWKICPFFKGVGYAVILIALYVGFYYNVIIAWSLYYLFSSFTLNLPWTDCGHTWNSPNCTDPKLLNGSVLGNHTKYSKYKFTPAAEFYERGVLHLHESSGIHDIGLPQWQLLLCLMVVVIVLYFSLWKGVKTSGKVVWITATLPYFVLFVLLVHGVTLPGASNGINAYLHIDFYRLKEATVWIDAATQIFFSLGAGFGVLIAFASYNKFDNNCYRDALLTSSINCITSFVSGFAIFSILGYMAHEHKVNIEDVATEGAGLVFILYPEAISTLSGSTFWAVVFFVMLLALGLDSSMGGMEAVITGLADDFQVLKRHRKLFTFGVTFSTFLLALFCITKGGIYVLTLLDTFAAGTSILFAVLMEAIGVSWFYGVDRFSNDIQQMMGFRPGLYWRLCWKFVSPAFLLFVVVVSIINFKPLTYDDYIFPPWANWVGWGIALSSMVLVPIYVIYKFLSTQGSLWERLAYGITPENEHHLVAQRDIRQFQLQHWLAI

[12] = biological target: Norepinephrine transporter (Rattus norvegicus, UniProt Q9JIA2)
[13] = biological target: Sodium-dependent serotonin transporter (Rattus norvegicus, UniProt P31652)
Sodium-dependent serotonin transporter, sequence (P31652 whole entry): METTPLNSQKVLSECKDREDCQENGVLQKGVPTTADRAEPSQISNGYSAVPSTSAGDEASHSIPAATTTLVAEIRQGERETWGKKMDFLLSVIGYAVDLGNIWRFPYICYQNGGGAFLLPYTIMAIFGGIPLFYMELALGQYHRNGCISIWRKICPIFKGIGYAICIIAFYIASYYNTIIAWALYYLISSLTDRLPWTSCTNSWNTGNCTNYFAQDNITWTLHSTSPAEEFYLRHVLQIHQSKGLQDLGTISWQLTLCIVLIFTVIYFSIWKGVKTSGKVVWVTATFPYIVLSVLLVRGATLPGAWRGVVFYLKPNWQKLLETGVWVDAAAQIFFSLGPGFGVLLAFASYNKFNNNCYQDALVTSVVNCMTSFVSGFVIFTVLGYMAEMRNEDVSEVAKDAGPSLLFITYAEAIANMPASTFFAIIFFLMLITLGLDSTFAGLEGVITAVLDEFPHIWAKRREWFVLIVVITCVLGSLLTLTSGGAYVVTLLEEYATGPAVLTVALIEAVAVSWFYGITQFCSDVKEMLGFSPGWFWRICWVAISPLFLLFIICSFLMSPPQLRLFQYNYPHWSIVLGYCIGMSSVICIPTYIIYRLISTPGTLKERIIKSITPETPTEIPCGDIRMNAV

5-hydroxytryptamine receptor 1B, sequence (P28222 whole entry): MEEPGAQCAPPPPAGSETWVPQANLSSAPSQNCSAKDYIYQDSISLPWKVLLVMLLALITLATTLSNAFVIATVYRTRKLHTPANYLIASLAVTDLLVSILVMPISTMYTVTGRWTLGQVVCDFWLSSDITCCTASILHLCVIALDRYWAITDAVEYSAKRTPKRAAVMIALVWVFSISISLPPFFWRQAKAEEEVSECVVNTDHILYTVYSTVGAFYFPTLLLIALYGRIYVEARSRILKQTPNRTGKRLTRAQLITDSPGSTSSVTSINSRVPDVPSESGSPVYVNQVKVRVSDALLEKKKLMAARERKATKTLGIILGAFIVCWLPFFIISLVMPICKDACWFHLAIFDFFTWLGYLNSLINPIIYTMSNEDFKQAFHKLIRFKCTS

Row | Structure (SMILES) | Ki [1] | Ki [2] | Ki [3] | Ki [4] | Ki [5] | Ki [6] | Ki (D(2) dopamine receptor) | Ki [7] | Ki [8] | Ki [9] | Ki [10] | Ki [11] | Ki [12] | Ki [13]
1 | CN(C)CCCC1(c2ccc(F)cc2)OCc2cc(C#N)ccc21 (configuration not stated) | > 10 µM | > 10 µM | > 10 µM | > 10 µM | > 10 µM | > 10 µM |  |  |  |  |  |  |  | 
2 | COc1ccc(C(CN(C)C)C2(O)CCCCC2)cc1 (configuration not stated) [NSC_62923] |  | > 10 µM | > 10 µM |  | > 10 µM | > 10 µM | > 10 µM | > 10 µM | > 10 µM |  |  |  |  | 
3 | CN(C)CCCN1c2ccccc2CCc2ccc(Cl)cc21 [CLOMIPRAMINE HYDROCHLORIDE] | > 10 µM | > 10 µM | > 10 µM |  | 0.525 µM | > 10 µM | 0.0776 µM | 0.0646 µM | 0.0032 µM | 3.02 µM | 1.23 µM |  |  | 
4 | COc1ccc2c(c1)C(CN(C)C)(C1(O)CCCCC1)C2 (configuration not stated) [S33005] | > 10 µM | > 10 µM | > 10 µM | > 10 µM | > 10 µM | > 10 µM | > 10 µM | > 10 µM | > 10 µM | > 10 µM | > 10 µM | 1.51 µM | 0.178 µM | 0.00195 µM
